The values that follow come from ChEMBL document CHEMBL1151343, “Antitumor plants. X. Constituents of Nectandra rigida” (1980).

In brackets after ≈: the same amount, converted by molar mass.

The test relates to KB. Kind of test: Cytotoxicity against human KB cells. In kind it is functional. Particulars: read-out: ED50 (the source's name).

With `C/C=C/c1cc(OC)c2c(c1)[C@H](C)[C@@H](c1ccc(O)c(OC)c1)O2` [LICARIN A], the EC50 was 7 µg/mL (≈ 21.4 µM).
